* marks the point of attachment. Palmitoyl = CCCCCCCCCCCCCCCC(=O)*
Assays:
HUVECs [1] = experiment: HUVEC migration scratch assay; format: cell-based, human; conditions: 1 μM in EBM with 0.5% FBS, 18 hours; untreated 25.2%
Experimental: To evaluate cell migration, endothelial basal media (EBM) without growth factors (Lonza) was supplemented with 0.5% FBS in order to prevent apoptosis but not promote significant migration or proliferation. Cells were grown to confluence in a 12 well plate and a 1 ml pipette tip was used to create a denuded scratch and the surface was washed twice with PBS to remove detached cells. The average scratch width at the initial time-point was […] Markings were placed on the underside of the plate to ensure the same region of the scratch was recorded in each image. […] The total pixel area of the scratch at the initial time-point was recorded using ImageJ analysis software, and the percent migration was determined from the reduction in denuded area at 18 hours.

[2] = biological target: T1, VEGF receptor 1 (VEGFR1 or Flt-1) (Homo sapiens, UniProt P17948); experiment: Sandwich ELISA of phosphorylated VEGFR1 in lysates of stimulated HUVEC; format: cell-based; conditions: HUVEC time-course 0-60 minutes; falls below untreated baseline
T1 construct: host or cells: HUVEC
Experimental: (§1) Human umbilical vein endothelial cells (HUVECs) and complete endothelial cell growth media (EGM) were purchased (Genlantis, San Diego, Calif.), passaged two times following receipt, and cryo-preserved in media with 5% DMSO. Cells were thawed as needed and grown to confluence in a […] flasks (VWR Falcon) prior to plating for experiments.
(§2) Phosphorylation of both VEGFRI and VEGFR2 was assayed using commercially available assay kit (R&D Systems, Minneapolis, Minn.) following the recommended protocol. First, confluent HUVECs plated in 24 well plates were starved for 5 hours in serum-free defined media (SFDM, Genlantis) specifically designed to maintain cells in a growth factor-free setting for growth factor signaling and metabolic assays. Following starvation, the various treatments were dissolved in SFDM to a concentration of 1 μM. […] Cells were exposed to treatment for 2 minutes. To evaluate the time-course of phosphorylation the same protocol was followed and cells were exposed to VEGF-PA for 0, 1, 3, 5, 10, 15, 20, 25, 30, 40, 50, and 60 minutes.

ischemic hind-limb = experiment: Murine hind-limb ischemia (HLI) model; format: in vivo, mice; conditions: for limb motor function score / tissue (limb) salvage score: single i.m. injection 25 μl of 2 mM; for limb motor function score: grade 1-5; for tissue (limb) salvage score: grade 1-6
Experimental: For the HLI procedure, eight week old male FVB wild-type mice (Charles River) were anesthetized by intraperitoneal injection of avertin (125 mg/kg). By means of a dissecting microscope, the femoral nerve was carefully separated from the vessel bundle. The right femoral artery was ligated and excised, including all superficial and deep branches. Critical limb ischemia was immediately verified by laser Doppler imaging (LDPI, MoorLDI-SIM, Moor Instruments, Ltd) to ensure the ratio (ischemic/non-ischemic limb) was ≦0.20. At postoperative day 3, outliers with low ischemia were triaged based on LDPI (ratio ischemic/nonischemic 0.30) as were outliers with extreme ischemia (necrotic demarcation of entire limb), determined by macroscopic evaluation. […] For follow-up, animals underwent reevaluations with LDPI at postoperative day 7, 14, and 28 before animals were sacrificed (CO, asphyxia) for tissue harvest at day 28. At each time-point, tissue perfusion was measured via LDPI, measuring blood flow in both the ischemic and non-ischemic limb and reporting results as the ratio of these two measurements. All LDPI measurements were taken on a 37° C. heating pad to control body temperature. In addition, motor function and tissue damage was semi-quantitatively assessed on post-operative day 7, 14, 21 and 28 by established scoring systems. Tissue damage in the ischemic limb (limb salvage score) was graded as full recovery (grade 6), minor necrosis or nail loss (grade 5), partial toe amputation (grade 4), total toe amputation (grade 3), partial/total foot amputation (grade 2) or partial/total limb amputation (grade 1) (modified from). Limb motor function was graded as unrestricted (grade 5), no active use of toe(s) or spreading (grade 4), restricted foot use (grade 3), no use of foot (grade 2) or no use of limb at all (grade 1) (modified from). Finally, walking capacity was measured via a Rota Rod apparatus. […] The mean of two assessments was used as for failure time for each animal. At day 28, muscle tissue from the ischemic limb was harvested, fixed in methanol, paraffin-embedded, and cross-sectioned (6-μm) for histological immunostaining. Briefly, sections were blocked with 10% donkey serum (30 min, RT). Primary antibodies were diluted in PBS containing BSA, and applied to tissue slices for 2 hrs at 37° C. Sections were stained for CD31, an endothelial-specific marker, using rat anti-CD31 antibodies (BD Pharmingen Inc) and smooth-muscle α-actin (αSMA), a vascular smooth muscle marker, using rabbit-anti-αSMA (Sigma-Aldrich Co.). For immunofluorescent detection, primary antibodies were resolved with Alexa-Fluor-conjugated secondary antibodies (Invitrogen Corporation, Carlsbad, Calif., USA dilution) and nuclei were counterstained with DAPI (Research Organics). Slides were imaged using fluorescent microscopy (Zeiss), and CD31+capillary forms and CD31+/sMA+]mature microvessels/arterioles were quantified in 3 separate high-power fields (20×) from 3 independent sections in each animal (9 images/animal). All error bars indicate the standard error of the mean. Differences between groups were determined using a one-way analysis of variance (ANOVA) with a Bonferroni multiple comparisons post-hoc test using GraphPad InStat v3.0b. […] VEGF-PA or control treatments were administered by an intramuscular injection three days following the induction of critical ischemia by ligation and excision of the right femoral artery and all superficial and deep branches, as described above. Animals were assessed serially throughout the study for motor function and limb salvage and Laser Doppler perfusion imaging (LDPI) was used to assess tissue perfusion. At the end of the study, exercise endurance was recorded on a Rota Rod treadmill and tissue was harvested for immunohistological staining of capillaries to observe effects on the microcirculation.

HUVECs [3] = experiment: HUVEC proliferation (CyQUANT-NF cell number); format: cell-based, human; conditions: 1 μM in EGM, 48 hours; untreated control 100.0%
Experimental: In vitro studies were performed using HUVECs, a primary endothelial cell that is VEGF-responsive and frequently used as a model endothelial cell for angiogenesis studies in vitro [31].
To evaluate proliferation, HUVECs were plated at 5000 per well in a 96 well plate. […] Additionally, unsupplemented growth media was used as a control. After 48 hours, cell number was quantified using CyQUANT-NF (Invitrogen) and a standard fluorescent microplate reader. Cell number is expressed relative to the group treated with unsupplemented growth media.

[4] = biological target: T2, VEGF receptor 2 (VEGFR2 or KDR) (Homo sapiens, UniProt P35968); experiment: Sandwich ELISA of phosphorylated VEGFR2 in lysates of stimulated HUVEC; format: cell-based
T2 construct: host or cells: HUVEC
Experimental: as §1, §2

T2 sequence (P35968 20-1356): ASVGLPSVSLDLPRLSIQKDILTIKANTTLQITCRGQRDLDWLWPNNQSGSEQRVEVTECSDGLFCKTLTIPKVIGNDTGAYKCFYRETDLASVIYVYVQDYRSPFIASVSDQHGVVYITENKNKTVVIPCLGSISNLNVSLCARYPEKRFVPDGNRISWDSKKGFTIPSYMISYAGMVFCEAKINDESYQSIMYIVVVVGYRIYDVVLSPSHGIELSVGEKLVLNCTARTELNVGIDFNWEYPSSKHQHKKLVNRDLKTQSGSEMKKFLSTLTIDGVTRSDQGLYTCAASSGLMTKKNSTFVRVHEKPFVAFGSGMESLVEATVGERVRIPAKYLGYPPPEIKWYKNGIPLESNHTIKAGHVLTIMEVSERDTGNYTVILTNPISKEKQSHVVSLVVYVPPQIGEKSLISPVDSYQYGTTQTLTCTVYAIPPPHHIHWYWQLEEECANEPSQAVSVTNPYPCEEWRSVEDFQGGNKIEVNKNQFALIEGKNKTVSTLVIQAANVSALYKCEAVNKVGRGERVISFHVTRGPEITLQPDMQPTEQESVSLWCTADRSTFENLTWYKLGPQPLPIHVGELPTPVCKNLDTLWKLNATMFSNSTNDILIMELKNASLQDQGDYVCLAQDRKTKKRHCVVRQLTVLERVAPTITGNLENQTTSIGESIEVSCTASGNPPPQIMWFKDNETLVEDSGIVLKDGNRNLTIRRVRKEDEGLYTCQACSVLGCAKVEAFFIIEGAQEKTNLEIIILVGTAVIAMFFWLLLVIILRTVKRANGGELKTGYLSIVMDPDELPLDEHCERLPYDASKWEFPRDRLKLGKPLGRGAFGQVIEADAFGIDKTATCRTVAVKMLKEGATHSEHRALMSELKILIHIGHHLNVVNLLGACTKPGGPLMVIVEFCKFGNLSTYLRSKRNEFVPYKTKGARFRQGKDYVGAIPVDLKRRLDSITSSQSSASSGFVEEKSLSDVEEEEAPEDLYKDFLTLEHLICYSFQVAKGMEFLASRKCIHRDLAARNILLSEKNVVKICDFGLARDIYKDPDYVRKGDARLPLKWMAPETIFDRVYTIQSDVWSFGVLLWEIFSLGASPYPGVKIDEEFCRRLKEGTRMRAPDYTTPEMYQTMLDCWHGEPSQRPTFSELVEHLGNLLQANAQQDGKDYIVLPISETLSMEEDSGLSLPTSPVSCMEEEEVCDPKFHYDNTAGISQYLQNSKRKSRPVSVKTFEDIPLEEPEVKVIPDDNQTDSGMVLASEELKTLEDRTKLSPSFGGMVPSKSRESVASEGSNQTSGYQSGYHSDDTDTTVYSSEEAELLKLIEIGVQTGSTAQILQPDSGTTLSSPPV
T1 sequence (P17948 27-1338): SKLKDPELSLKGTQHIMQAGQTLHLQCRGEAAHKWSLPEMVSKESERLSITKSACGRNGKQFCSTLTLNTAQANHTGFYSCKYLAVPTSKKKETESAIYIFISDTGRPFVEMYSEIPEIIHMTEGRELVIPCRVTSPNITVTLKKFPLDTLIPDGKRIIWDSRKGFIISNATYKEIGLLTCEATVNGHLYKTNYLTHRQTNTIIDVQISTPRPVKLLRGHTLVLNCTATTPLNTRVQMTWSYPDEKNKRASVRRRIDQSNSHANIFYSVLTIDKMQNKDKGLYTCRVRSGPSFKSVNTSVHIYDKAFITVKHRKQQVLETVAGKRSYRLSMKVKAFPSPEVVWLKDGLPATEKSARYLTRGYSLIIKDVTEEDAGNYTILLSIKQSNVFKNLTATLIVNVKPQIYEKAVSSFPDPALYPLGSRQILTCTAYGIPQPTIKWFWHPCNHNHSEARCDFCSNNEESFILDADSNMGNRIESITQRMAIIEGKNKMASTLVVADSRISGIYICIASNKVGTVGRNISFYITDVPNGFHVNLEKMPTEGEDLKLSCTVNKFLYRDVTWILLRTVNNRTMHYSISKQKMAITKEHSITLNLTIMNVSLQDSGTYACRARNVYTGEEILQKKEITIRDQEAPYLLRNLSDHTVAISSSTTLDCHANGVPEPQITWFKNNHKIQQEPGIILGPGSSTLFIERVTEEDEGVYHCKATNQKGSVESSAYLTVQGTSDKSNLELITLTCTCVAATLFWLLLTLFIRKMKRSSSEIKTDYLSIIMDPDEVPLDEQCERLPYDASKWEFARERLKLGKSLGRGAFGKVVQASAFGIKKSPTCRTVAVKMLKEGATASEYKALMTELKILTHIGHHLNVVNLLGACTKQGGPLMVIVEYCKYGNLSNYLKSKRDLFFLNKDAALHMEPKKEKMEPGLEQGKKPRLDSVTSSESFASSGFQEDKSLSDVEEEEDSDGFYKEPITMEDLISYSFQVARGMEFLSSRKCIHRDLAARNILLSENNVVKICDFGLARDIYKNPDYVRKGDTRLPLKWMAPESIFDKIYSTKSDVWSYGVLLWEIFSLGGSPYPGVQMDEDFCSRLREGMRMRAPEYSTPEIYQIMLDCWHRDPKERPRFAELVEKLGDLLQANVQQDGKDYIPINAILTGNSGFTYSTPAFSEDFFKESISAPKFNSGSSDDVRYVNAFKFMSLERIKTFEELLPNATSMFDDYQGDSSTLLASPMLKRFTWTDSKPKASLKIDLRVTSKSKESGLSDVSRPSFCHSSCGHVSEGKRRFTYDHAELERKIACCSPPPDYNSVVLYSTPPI

With “CH3(CH2)14C(O)— VVAAKKKGKLTWQELYQLKYKGI-NH2 (Palmitoyl-VVAAKKKGKLTWQELYQLKYKGI-NH2; SMILES CCCCCCCCCCCCCCCC(=O)N[C@H](C(=O)N[C@H](C(=O)N[C@@H](C)C(=O)N[C@@H](C)C(=O)N[C@@H](CCCCN)C(=O)N[C@@H](CCCCN)C(=O)N[C@@H](CCCCN)C(=O)NCC(=O)N[C@@H](CCCCN)C(=O)N[C@@H](CC(C)C)C(=O)N[C@H](C(=O)N[C@@H](Cc1c[nH]c2ccccc12)C(=O)N[C@@H](CCC(N)=O)C(=O)N[C@@H](CCC(=O)O)C(=O)N[C@@H](CC(C)C)C(=O)N[C@@H](Cc1ccc(O)cc1)C(=O)N[C@@H](CCC(N)=O)C(=O)N[C@@H](CC(C)C)C(=O)N[C@@H](CCCCN)C(=O)N[C@@H](Cc1ccc(O)cc1)C(=O)N[C@@H](CCCCN)C(=O)NCC(=O)N[C@H](C(N)=O)[C@@H](C)CC)[C@@H](C)O)C(C)C)C(C)C) [VEGF-PA]” the “reduction in scratch wound size (denuded area)” value (HUVECs [1]) was 68.7%±4.2%, the “time of stimulation at which phosphorylated VEGFR1 begins to decrease after initial rise” value [2] was 10 min and the “LDPI perfusion ratio (ischemic/non-ischemic limb)” value (ischemic hind-limb; 14 days after induction of ischemia) was 0.76±0.05. The “limb motor function score” value (ischemic hind-limb; day 21) was 3.89±0.12, the “tissue (limb) salvage score” value (ischemic hind-limb; day 21) was 4.21±0.21 and the “LDPI perfusion ratio (ischemic/non-ischemic limb)” value (ischemic hind-limb; day 28) was 0.72±0.05. The “Rota Rod walking time prior to failure” value (ischemic hind-limb; day 28, saline 90.4 seconds) was 150.5 ± 9.5 s, the “limb motor function score” value (ischemic hind-limb; day 28) was 4.21±0.16 and the “tissue (limb) salvage score” value (ischemic hind-limb; day 28) was 4.21±0.21. For the same substance, the “effect on the number of CD31+/smooth muscle actin+ arterioles” value (ischemic hind-limb; tissue harvested at day 28) was “no effect”, the “number of CD31+ capillaries in ischemic limb muscle” value (ischemic hind-limb; tissue harvested at day 28, saline 893/mm2) was 1582±76 /mm2 and the “proliferation (cell number relative to unsupplemented growth media)” value (HUVECs [3]) was 137.0%±2.4%. The “time of stimulation at which phosphorylated VEGFR2 begins to decrease after initial rise” value ([4]; HUVEC time-course 0-60 minutes, falls below untreated baseline) was 10 min and the “VEGFR2 phosphorylation level relative to untreated control” value ([4]; HUVEC, 1 μM, 2 minutes exposure, untreated control 1.000±0.109) was 1.581±0.050.

Source: patent US20130101628A1 (NORTHWESTERN UNIVERSITY, priority 2011, published 2013)
